Experimental data published in patent US20100298141A1, “SUBSTITUTED PYRIDINE N-OXIDE HERBICIDES” (E. I. DU PONT DE NEMOURS AND COMPANY, priority 2007, published 2010).

Columns and labels:
Assay in all cases: Test F preemergence test
prickly sida = type: in vivo, Sida spinosa; details: scale 0 to 100
How it was run: (§1)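 Test chemicals were formulated in a non-phytotoxic solvent mixture with surfactant and applied preemergence to planted seeds or postemergence to sugarcane plants. Plants were kept in a greenhouse for 14 to 21 days, then visually evaluated against controls.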

common purslane = type: in vivo, Portulaca oleracea; details: scale 0 to 100
How it was run: as §1

Russian thistle = type: in vivo, Salsola kali; details: scale 0 to 100
How it was run: as §1

itchgrass = type: in vivo, Rottboellia cochinchinensis; details: scale 0 to 100
How it was run: as §1

Virginia dayflower = type: in vivo, Commelina virginica; details: scale 0 to 100
How it was run: as §1

common mallow = type: in vivo, Malva sylvestris; details: scale 0 to 100
How it was run: as §1

johnsongrass = type: in vivo, Sorghum halepense; details: scale 0 to 100
How it was run: as §1

common sowthistle = type: in vivo, Sonchus oleraceous; details: scale 0 to 100; for Plant response rating, Sowthistle: 31 g ai/ha
How it was run: as §1

Canada horseweed = type: in vivo, Conyza canadensis; details: scale 0 to 100
How it was run: as §1

green foxtail = type: in vivo, Setaria viridis; details: scale 0 to 100
How it was run: as §1

naked crabgrass = type: in vivo, Digitaria nuda; details: scale 0 to 100
How it was run: as §1

dallisgrass = type: in vivo, Paspalum dilatatum; details: scale 0 to 100
How it was run: as §1

guineagrass = type: in vivo, Panicum maximum; details: scale 0 to 100
How it was run: as §1

annual bluegrass = type: in vivo, Poa annua; details: scale 0 to 100
How it was run: as §1

common groundsel = type: in vivo, Senecio vulgaris; details: scale 0 to 100
How it was run: as §1

pitted morningglory = type: in vivo, Ipomoea lacunosa; details: scale 0 to 100
How it was run: as §1

field bindweed = type: in vivo, Convolvulus arvensis; details: scale 0 to 100
How it was run: as §1

Cc1cc[n+]([O-])c([S+]([O-])Cc2c(C(F)(F)F)nn(C)c2OCC(F)(F)F)c1 (racemic) [Compound 30]
50: Plant response rating, Purslane (common purslane; Preemergence, 31 g ai/ha) | Plant response rating, Dayflower (Virginia dayflower; Preemergence, 16 g ai/ha) | Plant response rating, Dallisgrass (dallisgrass; Preemergence, 16 g ai/ha) | Plant response rating, Dallisgrass (dallisgrass; Preemergence, 31 g ai/ha) | Plant response rating, Bluegrass (annual bluegrass; Preemergence, 31 g ai/ha) | Plant response rating, Groundsel (common groundsel; Preemergence, 16 g ai/ha) | Plant response rating, Field Bindweed (field bindweed; Preemergence, 16 g ai/ha) | Plant response rating, Field Bindweed (field bindweed; Preemergence, 31 g ai/ha)
85: Itchgrass plant response rating (itchgrass; 125 g ai/ha, preemergence) | Dallisgrass plant response rating (dallisgrass; 62 g ai/ha, Preemergence)
100: Prickly Sida plant response rating (prickly sida; 125 g ai/ha, preemergence) | Purslane plant response rating (common purslane; 125 g ai/ha, preemergence) | Russian Thistle plant response rating (Russian thistle; 62 g ai/ha, Preemergence) | Russian Thistle plant response rating (Russian thistle; 125 g ai/ha, preemergence) | Plant response rating, Russian Thistle (Russian thistle; Preemergence, 16 g ai/ha) | Plant response rating, Russian Thistle (Russian thistle; Preemergence, 31 g ai/ha) | Dayflower plant response rating (Virginia dayflower; 125 g ai/ha, preemergence) | Mallow plant response rating (common mallow; 62 g ai/ha, Preemergence) | Mallow plant response rating (common mallow; 125 g ai/ha, preemergence) | Johnsongrass plant response rating (johnsongrass; 125 g ai/ha, preemergence) | Sowthistle plant response rating (common sowthistle; 62 g ai/ha, Preemergence) | Sowthistle plant response rating (common sowthistle; 125 g ai/ha, preemergence) | Plant response rating, Sowthistle (common sowthistle; Preemergence) | Horseweed plant response rating (Canada horseweed; 62 g ai/ha, Preemergence) | Horseweed plant response rating (Canada horseweed; 125 g ai/ha, preemergence) | Plant response rating, Horseweed (Canada horseweed; Preemergence, 16 g ai/ha) | Plant response rating, Horseweed (Canada horseweed; Preemergence, 31 g ai/ha) | Foxtail, Green plant response rating (green foxtail; 125 g ai/ha, preemergence) | Crabgrass, Naked plant response rating (naked crabgrass; 62 g ai/ha, Preemergence) | Crabgrass, Naked plant response rating (naked crabgrass; 125 g ai/ha, preemergence) | Guineagrass plant response rating (guineagrass; 62 g ai/ha, Preemergence) | Guineagrass plant response rating (guineagrass; 125 g ai/ha, preemergence) | Plant response rating, Guineagrass (guineagrass; Preemergence, 31 g ai/ha) | Groundsel plant response rating (common groundsel; 125 g ai/ha, preemergence) | Morningglory plant response rating (pitted morningglory; 125 g ai/ha, preemergence)
25: Plant response rating, Itchgrass (itchgrass; Preemergence, 31 g ai/ha) | Plant response rating, Foxtail, Green (green foxtail; Preemergence, 31 g ai/ha)
40: Plant response rating, Johnsongrass (johnsongrass; Preemergence, 16 g ai/ha)
95: Prickly Sida plant response rating (prickly sida; 62 g ai/ha, Preemergence) | Plant response rating, Mallow (common mallow; Preemergence, 31 g ai/ha)
80: Plant response rating, Prickly Sida (prickly sida; Preemergence, 31 g ai/ha) | Johnsongrass plant response rating (johnsongrass; 62 g ai/ha, Preemergence) | Plant response rating, Crabgrass, Naked (naked crabgrass; Preemergence, 16 g ai/ha) | Bluegrass plant response rating (annual bluegrass; 125 g ai/ha, preemergence)
90: Dayflower plant response rating (Virginia dayflower; 62 g ai/ha, Preemergence) | Plant response rating, Mallow (common mallow; Preemergence, 16 g ai/ha) | Groundsel plant response rating (common groundsel; 62 g ai/ha, Preemergence) | Plant response rating, Groundsel (common groundsel; Preemergence, 31 g ai/ha) | Morningglory plant response rating (pitted morningglory; 62 g ai/ha, Preemergence)
98: Plant response rating, Crabgrass, Naked (naked crabgrass; Preemergence, 31 g ai/ha) | Dallisgrass plant response rating (dallisgrass; 125 g ai/ha, preemergence)
20: Plant response rating, Itchgrass (itchgrass; Preemergence, 16 g ai/ha) | Plant response rating, Morningglory (pitted morningglory; Preemergence, 16 g ai/ha)
75: Purslane plant response rating (common purslane; 62 g ai/ha, Preemergence) | Foxtail, Green plant response rating (green foxtail; 62 g ai/ha, Preemergence) | Field Bindweed plant response rating (field bindweed; 62 g ai/ha, Preemergence) | Field Bindweed plant response rating (field bindweed; 125 g ai/ha, preemergence)
70: Itchgrass plant response rating (itchgrass; 62 g ai/ha, Preemergence) | Plant response rating, Dayflower (Virginia dayflower; Preemergence, 31 g ai/ha)
60: Plant response rating, Prickly Sida (prickly sida; Preemergence, 16 g ai/ha) | Plant response rating, Johnsongrass (johnsongrass; Preemergence, 31 g ai/ha) | Plant response rating, Morningglory (pitted morningglory; Preemergence, 31 g ai/ha)
15: Plant response rating, Foxtail, Green (green foxtail; Preemergence, 16 g ai/ha)
65: Bluegrass plant response rating (annual bluegrass; 62 g ai/ha, Preemergence)
35: Plant response rating, Purslane (common purslane; Preemergence, 16 g ai/ha) | Plant response rating, Guineagrass (guineagrass; Preemergence, 16 g ai/ha) | Plant response rating, Bluegrass (annual bluegrass; Preemergence, 16 g ai/ha)

Cn1nc(C(F)(F)F)c(C[S+]([O-])c2cccc[n+]2[O-])c1Cl (centres unmarked) [Compound 8]
95: Itchgrass plant response rating (itchgrass; 125 g ai/ha, preemergence) | Johnsongrass plant response rating (johnsongrass; 62 g ai/ha, Preemergence) | Johnsongrass plant response rating (johnsongrass; 125 g ai/ha, preemergence)
60: Mallow plant response rating (common mallow; 62 g ai/ha, Preemergence) | Plant response rating, Crabgrass, Naked (naked crabgrass; Preemergence, 16 g ai/ha) | Plant response rating, Guineagrass (guineagrass; Preemergence, 31 g ai/ha)
20: Plant response rating, Prickly Sida (prickly sida; Preemergence, 16 g ai/ha) | Plant response rating, Prickly Sida (prickly sida; Preemergence, 31 g ai/ha) | Purslane plant response rating (common purslane; 125 g ai/ha, preemergence) | Plant response rating, Dallisgrass (dallisgrass; Preemergence, 31 g ai/ha)
15: Purslane plant response rating (common purslane; 62 g ai/ha, Preemergence) | Plant response rating, Itchgrass (itchgrass; Preemergence, 31 g ai/ha) | Field Bindweed plant response rating (field bindweed; 62 g ai/ha, Preemergence)
65: Plant response rating, Sowthistle (common sowthistle; Preemergence) | Groundsel plant response rating (common groundsel; 62 g ai/ha, Preemergence)
100: Russian Thistle plant response rating (Russian thistle; 125 g ai/ha, preemergence) | Sowthistle plant response rating (common sowthistle; 125 g ai/ha, preemergence) | Horseweed plant response rating (Canada horseweed; 62 g ai/ha, Preemergence) | Horseweed plant response rating (Canada horseweed; 125 g ai/ha, preemergence) | Crabgrass, Naked plant response rating (naked crabgrass; 125 g ai/ha, preemergence) | Guineagrass plant response rating (guineagrass; 125 g ai/ha, preemergence)
90: Prickly Sida plant response rating (prickly sida; 125 g ai/ha, preemergence) | Sowthistle plant response rating (common sowthistle; 62 g ai/ha, Preemergence) | Foxtail, Green plant response rating (green foxtail; 125 g ai/ha, preemergence) | Crabgrass, Naked plant response rating (naked crabgrass; 62 g ai/ha, Preemergence)
0: Plant response rating, Purslane (common purslane; Preemergence, 16 g ai/ha) | Plant response rating, Purslane (common purslane; Preemergence, 31 g ai/ha) | Plant response rating, Itchgrass (itchgrass; Preemergence, 16 g ai/ha) | Dayflower plant response rating (Virginia dayflower; 62 g ai/ha, Preemergence) | Plant response rating, Dayflower (Virginia dayflower; Preemergence, 16 g ai/ha) | Plant response rating, Dayflower (Virginia dayflower; Preemergence, 31 g ai/ha) | Plant response rating, Johnsongrass (johnsongrass; Preemergence, 16 g ai/ha) | Plant response rating, Horseweed (Canada horseweed; Preemergence, 16 g ai/ha) | Plant response rating, Horseweed (Canada horseweed; Preemergence, 31 g ai/ha) | Plant response rating, Foxtail, Green (green foxtail; Preemergence, 16 g ai/ha) | Plant response rating, Dallisgrass (dallisgrass; Preemergence, 16 g ai/ha) | Bluegrass plant response rating (annual bluegrass; 62 g ai/ha, Preemergence) | Plant response rating, Bluegrass (annual bluegrass; Preemergence, 16 g ai/ha) | Plant response rating, Bluegrass (annual bluegrass; Preemergence, 31 g ai/ha) | Plant response rating, Groundsel (common groundsel; Preemergence, 16 g ai/ha) | Plant response rating, Groundsel (common groundsel; Preemergence, 31 g ai/ha) | Morningglory plant response rating (pitted morningglory; 62 g ai/ha, Preemergence) | Plant response rating, Morningglory (pitted morningglory; Preemergence, 16 g ai/ha) | Plant response rating, Morningglory (pitted morningglory; Preemergence, 31 g ai/ha) | Plant response rating, Field Bindweed (field bindweed; Preemergence, 16 g ai/ha) | Plant response rating, Field Bindweed (field bindweed; Preemergence, 31 g ai/ha)
30: Plant response rating, Mallow (common mallow; Preemergence, 16 g ai/ha) | Plant response rating, Mallow (common mallow; Preemergence, 31 g ai/ha)
70: Prickly Sida plant response rating (prickly sida; 62 g ai/ha, Preemergence) | Plant response rating, Foxtail, Green (green foxtail; Preemergence, 31 g ai/ha) | Bluegrass plant response rating (annual bluegrass; 125 g ai/ha, preemergence) | Field Bindweed plant response rating (field bindweed; 125 g ai/ha, preemergence)
80: Itchgrass plant response rating (itchgrass; 62 g ai/ha, Preemergence) | Mallow plant response rating (common mallow; 125 g ai/ha, preemergence) | Foxtail, Green plant response rating (green foxtail; 62 g ai/ha, Preemergence) | Dallisgrass plant response rating (dallisgrass; 62 g ai/ha, Preemergence) | Groundsel plant response rating (common groundsel; 125 g ai/ha, preemergence)
75: Dayflower plant response rating (Virginia dayflower; 125 g ai/ha, preemergence) | Plant response rating, Johnsongrass (johnsongrass; Preemergence, 31 g ai/ha) | Plant response rating, Crabgrass, Naked (naked crabgrass; Preemergence, 31 g ai/ha)
98: Dallisgrass plant response rating (dallisgrass; 125 g ai/ha, preemergence) | Guineagrass plant response rating (guineagrass; 62 g ai/ha, Preemergence)
35: Plant response rating, Guineagrass (guineagrass; Preemergence, 16 g ai/ha) | Morningglory plant response rating (pitted morningglory; 125 g ai/ha, preemergence)
